Test results from patent US20260184697A1, “EZH1/2 INHIBITOR, PREPARATION THEREOF, AND USE THEREOF IN ANTI-TUMOR THERAPY” (JIANGSU TASLY DIYI PHARMACEUTICAL CO., LTD., priority 2022, published 2026).

Biological target: T1, EZH1/SUZ/EED (Homo sapiens, UniProt O75530+Q15022+Q92800)
T1 construct: purchased BPS 51006
Assay: Inhibitory effect on EZH1 by the MTase-Glo method (Test Example 1)
Assay type: biochemical
Conditions: EZH1/SUZ/EED 25 nM, H3 peptide 10 μM, SAM 3 μM, 30° C. 3 h, read-out: Test Example 1 WT EZH1 IC50
Description: (§1) The compound was dissolved in DMSO, and the compound was serially diluted using ECHO665 and transferred to a 384-well reaction plate (Corning, 3824). A sample containing only DMSO was added as a positive control (maximum signal control) and a negative control (minimum signal control), while ensuring that the final DMSO content in each reaction well was 0.5%. The protein was configured in reaction buffer (50 mM Bicine, 0.01% Triton X-100, 1 mM DTT, 0.01% BSA, pH 7.6), such that the final reaction concentrations of EZH2/SUZ/EED (BPS, 51003) protein solution and EZH1/SUZ/EED (BPS, 51006) were 6.25 nM and 25 nM, respectively. The negative control (minimum signal control) used an equal amount of buffer instead of protein solution. The prepared protein solution was added to the 384-well reaction plate and pre-incubated at room temperature for 15 minutes. The mixture of the substrate H3 peptide fragment (custom-synthesized by GenScript, biotinylated Histone H3(21-44) peptide ([…]-GG-K(Biotin)-OH)) prepared in the reaction buffer and SAM (Promega, V7601) was added into the 384-well plate, such that the final reaction concentration of H3 peptide fragment was 10 μM, and the final concentration of SAM was 3 μM. The mixture was centrifuged at 1000 rpm for 1 min. The 384-well reaction plate was placed in a constant temperature shaker and incubate at 30° C. for 3 h at a speed of 300 rpm. Then the detection reagent was added according to the experimental process of the kit MTase-Glo (Promega, V7601) and incubated.
(§2) After incubation, read with BMG PHERAStar. The luminescence signals obtained by positive control (maximum signal control) and negative control (minimum signal control) were normalized to obtain the inhibition rate of different concentrations of compounds. Then, the IC50 of the compound on the enzyme activity inhibition was calculated by GraphPad Prism 6 with log(inhibitor) vs. response-Variable slope model fitting. The fitting equation is: Y=Bottom+(Top−Bottom)/(1+10^((Log IC50−X)*HillSlope)), wherein Y represents the known percentage remaining enzyme activity, and X represents the known activity after Log compound concentration.

T1 sequence (Q92800 2-747 limits assumed): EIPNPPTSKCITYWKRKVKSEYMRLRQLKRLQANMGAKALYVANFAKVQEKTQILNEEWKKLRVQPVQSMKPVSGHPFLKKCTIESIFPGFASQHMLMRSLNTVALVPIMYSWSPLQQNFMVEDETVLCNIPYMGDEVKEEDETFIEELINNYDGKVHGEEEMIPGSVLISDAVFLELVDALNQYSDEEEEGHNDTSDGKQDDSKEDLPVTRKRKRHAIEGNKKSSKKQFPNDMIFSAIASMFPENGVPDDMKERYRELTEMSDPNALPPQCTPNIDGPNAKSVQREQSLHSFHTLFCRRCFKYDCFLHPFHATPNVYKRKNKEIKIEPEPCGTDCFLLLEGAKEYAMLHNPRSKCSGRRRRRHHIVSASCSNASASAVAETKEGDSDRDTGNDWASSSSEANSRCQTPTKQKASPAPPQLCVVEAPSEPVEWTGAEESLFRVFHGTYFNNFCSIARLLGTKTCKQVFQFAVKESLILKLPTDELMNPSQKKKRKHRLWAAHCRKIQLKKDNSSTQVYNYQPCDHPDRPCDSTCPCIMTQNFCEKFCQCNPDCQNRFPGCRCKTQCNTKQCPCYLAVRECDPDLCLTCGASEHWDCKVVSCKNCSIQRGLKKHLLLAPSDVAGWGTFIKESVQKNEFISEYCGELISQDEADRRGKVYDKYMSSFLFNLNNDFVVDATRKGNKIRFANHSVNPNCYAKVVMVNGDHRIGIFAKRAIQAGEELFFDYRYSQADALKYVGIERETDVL
T1 sequence (Q15022 2-739 partner limits assumed): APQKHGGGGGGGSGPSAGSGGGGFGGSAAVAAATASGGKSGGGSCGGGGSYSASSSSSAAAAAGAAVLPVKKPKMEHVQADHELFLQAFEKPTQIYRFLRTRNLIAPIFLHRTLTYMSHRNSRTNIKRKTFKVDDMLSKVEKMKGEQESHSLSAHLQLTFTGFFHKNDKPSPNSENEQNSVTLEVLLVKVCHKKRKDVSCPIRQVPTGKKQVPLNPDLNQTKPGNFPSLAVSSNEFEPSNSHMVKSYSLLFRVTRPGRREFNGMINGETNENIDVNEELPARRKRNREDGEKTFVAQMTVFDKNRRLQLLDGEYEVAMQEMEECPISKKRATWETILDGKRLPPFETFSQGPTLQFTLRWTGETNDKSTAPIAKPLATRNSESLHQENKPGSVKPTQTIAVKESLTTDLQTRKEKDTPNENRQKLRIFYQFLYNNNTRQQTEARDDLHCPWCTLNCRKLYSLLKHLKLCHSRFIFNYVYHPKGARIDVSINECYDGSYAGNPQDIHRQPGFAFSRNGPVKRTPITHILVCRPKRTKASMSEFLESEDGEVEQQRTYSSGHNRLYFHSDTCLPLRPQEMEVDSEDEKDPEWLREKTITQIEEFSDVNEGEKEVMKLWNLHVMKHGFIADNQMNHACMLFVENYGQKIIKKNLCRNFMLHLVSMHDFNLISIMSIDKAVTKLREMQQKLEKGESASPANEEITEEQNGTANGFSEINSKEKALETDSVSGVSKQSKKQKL
T1 sequence (O75530 2-441 partner limits assumed): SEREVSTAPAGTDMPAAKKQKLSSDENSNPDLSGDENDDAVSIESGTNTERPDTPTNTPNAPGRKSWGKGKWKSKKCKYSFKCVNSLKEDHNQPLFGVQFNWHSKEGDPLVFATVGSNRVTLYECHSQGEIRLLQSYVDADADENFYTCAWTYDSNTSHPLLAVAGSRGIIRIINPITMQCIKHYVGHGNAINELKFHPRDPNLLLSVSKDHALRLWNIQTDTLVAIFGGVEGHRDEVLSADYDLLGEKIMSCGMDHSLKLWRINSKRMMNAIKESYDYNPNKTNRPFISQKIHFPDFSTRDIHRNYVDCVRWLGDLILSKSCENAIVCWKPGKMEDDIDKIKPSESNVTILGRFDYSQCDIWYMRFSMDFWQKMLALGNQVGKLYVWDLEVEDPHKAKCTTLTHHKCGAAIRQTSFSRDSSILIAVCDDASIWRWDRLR

IC50	SMILES
94.9 nM	Cc1cc(C)c(CNC(=O)c2cc(Cl)c3c(c2C)OC(C2CCC(N4CC5COCC5C4)CC2)CO3)c(=O)[nH]1 (single isomer, unassigned) [Compound 60]
1440 nM	COC1CN(C2CCC(C3COc4c(Cl)cc(C(=O)NCc5c(C)cc(C)[nH]c5=O)c(C)c4O3)CC2)C1 (single isomer, unassigned) [Compound 62]
254 nM	Cc1cc(C)c(CNC(=O)c2cc(Cl)c3c(c2C)OC(C2CCC(NC4CC(F)C4)CC2)CO3)c(=O)[nH]1 (single isomer, unassigned) [Compound 64]
177 nM	Cc1cc(C)c(CNC(=O)c2cc(Cl)c3c(c2C)OC(C2CCC(N4CC(F)C4)CC2)CO3)c(=O)[nH]1 (single isomer, unassigned) [Compound 70]
270 nM	Cc1cc(C)c(CNC(=O)c2cc(Cl)c3c(c2C)OC(C2CCC(N4CC(OC5CC5)C4)CC2)CO3)c(=O)[nH]1 (single isomer, unassigned) [Compound 76]
142 nM	Cc1cc(C)c(CNC(=O)c2cc(Cl)c3c(c2C)OC(C2CCC(N4CC(OC5CC5)C4)CC2)CO3)c(=O)[nH]1 (single isomer, unassigned) [Compound 77]
16.5 nM	COCCN1CCC([C@H]2COc3c(Cl)cc(C(=O)NCc4c(SC)cc(C)[nH]c4=O)c(C)c3O2)CC1 [Compound 17]
2.3 nM	[2H]C1(OC)CN([C@H]2CC[C@@H]([C@H]3COc4c(Cl)cc(C(=O)NCc5c(SC)cc(C)[nH]c5=O)c(C)c4O3)CC2)C1 [Compound 22]
9.2 nM	CSc1cc(C)[nH]c(=O)c1CNC(=O)c1cc(Cl)c2c(c1C)O[C@@H](C1CCN(CCF)CC1)CO2 [Compound 24]
8.3 nM	CSc1cc(C)[nH]c(=O)c1CNC(=O)c1cc(Cl)c2c(c1C)O[C@@H](C1CCN(CC3CCC3)CC1)CO2 [Compound 25]
5.4 nM	COCCN(C)[C@H]1CC[C@@H]([C@H]2COc3c(Cl)cc(C(=O)NCc4c(SC)cc(C)[nH]c4=O)c(C)c3O2)CC1 [Compound 26]
14.4 nM	COCCN(C)[C@H]1CC[C@H]([C@H]2COc3c(Cl)cc(C(=O)NCc4c(SC)cc(C)[nH]c4=O)c(C)c3O2)CC1 [Compound 27]
9.4 nM	CSc1cc(C)[nH]c(=O)c1CNC(=O)c1cc(Cl)c2c(c1C)O[C@@H]([C@H]1CC[C@@H](N3CC4(COC4)C3)CC1)CO2 [Compound 28]
5.8 nM	CSc1cc(C)[nH]c(=O)c1CNC(=O)c1cc(Cl)c2c(c1C)O[C@@H]([C@H]1CC[C@H](N3CC4(COC4)C3)CC1)CO2 [Compound 29]

SMILES	IC50
CSc1cc(C)[nH]c(=O)c1CNC(=O)c1cc(Cl)c2c(c1C)O[C@@H]([C@H]1CC[C@H](N3CCC3)CC1)CO2 [Compound 33]	9.4 nM

Tested on: H3K27Me3 methylation in Karpas-422 cells
Assay: H3K27Me3 cell method, inhibition of H3K27Me3 methylation (Test Example 2)
Assay type: cell-based, human
Conditions: Homo sapiens, KARPAS-422, 72 h, Karpas-422 cells, 3 days incubation, HTRF signal; read-out: Test Example 2 H3K27Me3 inhibition (Karpas-422) IC50
Description: Karpas-422 (Nanjing Kebai, CBP60629) cells were seeded in a 96-well plate (Corning, 3894) at 15,000 cells per well in culture medium (80% 1640 (Hyclone, SH30809.01)+20% FBS (Corning, 35-081-CV)), and then added with different concentrations of compounds for treatment. The cell growth group without adding compounds is used as a positive control (maximum signal control), and the medium is used as a negative control (minimum signal control), while ensuring that in each reaction well, the final concentration of DMSO was 0.2%. Compounds and cells were incubated for 3 days in a cell culture incubator (37° C., 5% CO2). The 96-well plate was taken out from the cell culture incubator and equilibrated to room temperature, and 25 ul of cell suspension was taken out into a 384-well plate. The CCK8 (Beiyuntian, C0040) detection reagent was added, incubated at 37° C. for 1 h, and […] was detected. The rest of the cells followed the procedure of the kit EPIgeneous H3K27Me3 cellular kit (Cisbio, 62KC3PAE) to carry out experiment, read HTRF signal with BMG PHERAStar. […] By GraphPad Prism 6 with log(inhibitor)vs.response-Variable slope model simulation, the IC50 of the compound on cell activity inhibition was calculated. The fitting equation is: Y=Bottom+(Top−Bottom)/(1+10^((Log IC50−X)*HillSlope)), wherein Y represents the inhibition rate, and X represents the known concentration of the compound after Log.

IC50	SMILES
896 nM	Cc1cc(C)c(CNC(=O)c2cc(Cl)c3c(c2C)OC(C2CCC(NC4CC(F)C4)CC2)CO3)c(=O)[nH]1 (single isomer, unassigned) [Compound 64]
201 nM	Cc1cc(C)c(CNC(=O)c2cc(Cl)c3c(c2C)OC(C2CCC(N4CC(F)C4)CC2)CO3)c(=O)[nH]1 (single isomer, unassigned) [Compound 70]
12 nM	COCCN1CCC([C@H]2COc3c(Cl)cc(C(=O)NCc4c(SC)cc(C)[nH]c4=O)c(C)c3O2)CC1 [Compound 17]
1.8 nM	[2H]C1(OC)CN([C@H]2CC[C@@H]([C@H]3COc4c(Cl)cc(C(=O)NCc5c(SC)cc(C)[nH]c5=O)c(C)c4O3)CC2)C1 [Compound 22]
9.8 nM	CSc1cc(C)[nH]c(=O)c1CNC(=O)c1cc(Cl)c2c(c1C)O[C@@H](C1CCN(CCF)CC1)CO2 [Compound 24]
17.3 nM	CSc1cc(C)[nH]c(=O)c1CNC(=O)c1cc(Cl)c2c(c1C)O[C@@H](C1CCN(CC3CCC3)CC1)CO2 [Compound 25]
3.4 nM	COCCN(C)[C@H]1CC[C@@H]([C@H]2COc3c(Cl)cc(C(=O)NCc4c(SC)cc(C)[nH]c4=O)c(C)c3O2)CC1 [Compound 26]
11.4 nM	COCCN(C)[C@H]1CC[C@H]([C@H]2COc3c(Cl)cc(C(=O)NCc4c(SC)cc(C)[nH]c4=O)c(C)c3O2)CC1 [Compound 27]
8.2 nM	CSc1cc(C)[nH]c(=O)c1CNC(=O)c1cc(Cl)c2c(c1C)O[C@@H]([C@H]1CC[C@@H](N3CC4(COC4)C3)CC1)CO2 [Compound 28]
34.2 nM	CSc1cc(C)[nH]c(=O)c1CNC(=O)c1cc(Cl)c2c(c1C)O[C@@H]([C@H]1CC[C@H](N3CC4(COC4)C3)CC1)CO2 [Compound 29]

Same assay, conditions: Homo sapiens, KARPAS-422, 72 h, read-out: Test Example 2 H3K27Me3 inhibition (Karpas-422) IC50(nM)

SMILES	IC50
CSc1cc(C)[nH]c(=O)c1CNC(=O)c1cc(Cl)c2c(c1C)O[C@@H]([C@H]1CC[C@H](N3CCC3)CC1)CO2 [Compound 33]	7.7 nM

Same assay, conditions: Karpas-422 cells, 3 days incubation, HTRF signal; read-out: Test Example 2 H3K27Me3 inhibition (Karpas-422) IC50

IC50	SMILES
> 1000 nM	Cc1cc(C)c(CNC(=O)c2cc(Cl)c3c(c2C)OC(C2CCC(N4CC5COCC5C4)CC2)CO3)c(=O)[nH]1 (single isomer, unassigned) [Compound 60]
504 nM	COC1CN(C2CCC(C3COc4c(Cl)cc(C(=O)NCc5c(C)cc(C)[nH]c5=O)c(C)c4O3)CC2)C1 (single isomer, unassigned) [Compound 62]
7.6 nM	Cc1cc(C)c(CNC(=O)c2cc(Cl)c3c(c2C)OC(C2CCC(N4CC(OC5CC5)C4)CC2)CO3)c(=O)[nH]1 (single isomer, unassigned) [Compound 76]
260 nM	Cc1cc(C)c(CNC(=O)c2cc(Cl)c3c(c2C)OC(C2CCC(N4CC(OC5CC5)C4)CC2)CO3)c(=O)[nH]1 (single isomer, unassigned) [Compound 77]

Biological target: T2, EZH2/SUZ/EED (Homo sapiens, UniProt O75530+Q15022+Q15910)
T2 construct: purchased BPS 51003
T2 sequence (Q15910 2-746 limits assumed): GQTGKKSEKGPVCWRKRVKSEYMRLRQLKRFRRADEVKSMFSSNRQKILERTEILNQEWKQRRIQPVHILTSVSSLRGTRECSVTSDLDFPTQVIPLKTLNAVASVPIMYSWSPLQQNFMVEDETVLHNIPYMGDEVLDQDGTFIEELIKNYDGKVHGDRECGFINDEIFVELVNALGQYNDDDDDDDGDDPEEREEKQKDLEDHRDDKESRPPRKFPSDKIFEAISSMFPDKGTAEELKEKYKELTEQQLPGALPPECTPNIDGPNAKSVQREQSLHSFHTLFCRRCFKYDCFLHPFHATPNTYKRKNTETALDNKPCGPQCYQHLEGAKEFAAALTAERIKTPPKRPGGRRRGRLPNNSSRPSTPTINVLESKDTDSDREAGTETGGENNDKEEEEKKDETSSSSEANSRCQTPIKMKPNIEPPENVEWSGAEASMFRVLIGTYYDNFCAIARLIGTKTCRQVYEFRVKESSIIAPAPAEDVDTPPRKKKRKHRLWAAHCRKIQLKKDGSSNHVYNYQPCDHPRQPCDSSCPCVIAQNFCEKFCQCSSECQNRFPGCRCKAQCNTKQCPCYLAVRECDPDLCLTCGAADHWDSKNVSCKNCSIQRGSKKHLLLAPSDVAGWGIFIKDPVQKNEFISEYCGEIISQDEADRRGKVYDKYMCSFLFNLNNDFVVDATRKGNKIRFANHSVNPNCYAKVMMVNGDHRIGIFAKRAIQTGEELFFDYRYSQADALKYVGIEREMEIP
T2 sequence (Q15022 2-739 partner limits assumed): as the sequence (Q15022 2-739 partner limits assumed) above
T2 sequence (O75530 2-441 partner limits assumed): as the sequence (O75530 2-441 partner limits assumed) above
Assay: Inhibitory effect on EZH2 by the MTase-Glo method (Test Example 1)
Assay type: biochemical
Conditions: EZH2/SUZ/EED 6.25 nM, H3 peptide 10 μM, SAM 3 μM, 30° C. 3 h, read-out: Test Example 1 WT EZH2 IC50
Description: as §1, §2

IC50	SMILES
16.4 nM	Cc1cc(C)c(CNC(=O)c2cc(Cl)c3c(c2C)OC(C2CCC(N4CC5COCC5C4)CC2)CO3)c(=O)[nH]1 (single isomer, unassigned) [Compound 60]
22.1 nM	COC1CN(C2CCC(C3COc4c(Cl)cc(C(=O)NCc5c(C)cc(C)[nH]c5=O)c(C)c4O3)CC2)C1 (single isomer, unassigned) [Compound 62]
16.6 nM	Cc1cc(C)c(CNC(=O)c2cc(Cl)c3c(c2C)OC(C2CCC(NC4CC(F)C4)CC2)CO3)c(=O)[nH]1 (single isomer, unassigned) [Compound 64]
22.1 nM	Cc1cc(C)c(CNC(=O)c2cc(Cl)c3c(c2C)OC(C2CCC(N4CC(F)C4)CC2)CO3)c(=O)[nH]1 (single isomer, unassigned) [Compound 70]
7.6 nM	Cc1cc(C)c(CNC(=O)c2cc(Cl)c3c(c2C)OC(C2CCC(N4CC(OC5CC5)C4)CC2)CO3)c(=O)[nH]1 (single isomer, unassigned) [Compound 76]
27.3 nM	Cc1cc(C)c(CNC(=O)c2cc(Cl)c3c(c2C)OC(C2CCC(N4CC(OC5CC5)C4)CC2)CO3)c(=O)[nH]1 (single isomer, unassigned) [Compound 77]
4.6 nM	COCCN1CCC([C@H]2COc3c(Cl)cc(C(=O)NCc4c(SC)cc(C)[nH]c4=O)c(C)c3O2)CC1 [Compound 17]
2.1 nM	[2H]C1(OC)CN([C@H]2CC[C@@H]([C@H]3COc4c(Cl)cc(C(=O)NCc5c(SC)cc(C)[nH]c5=O)c(C)c4O3)CC2)C1 [Compound 22]
4.5 nM	CSc1cc(C)[nH]c(=O)c1CNC(=O)c1cc(Cl)c2c(c1C)O[C@@H](C1CCN(CCF)CC1)CO2 [Compound 24]
1.6 nM	CSc1cc(C)[nH]c(=O)c1CNC(=O)c1cc(Cl)c2c(c1C)O[C@@H](C1CCN(CC3CCC3)CC1)CO2 [Compound 25]
2 nM	COCCN(C)[C@H]1CC[C@@H]([C@H]2COc3c(Cl)cc(C(=O)NCc4c(SC)cc(C)[nH]c4=O)c(C)c3O2)CC1 [Compound 26]
2.3 nM	COCCN(C)[C@H]1CC[C@H]([C@H]2COc3c(Cl)cc(C(=O)NCc4c(SC)cc(C)[nH]c4=O)c(C)c3O2)CC1 [Compound 27]
3.7 nM	CSc1cc(C)[nH]c(=O)c1CNC(=O)c1cc(Cl)c2c(c1C)O[C@@H]([C@H]1CC[C@@H](N3CC4(COC4)C3)CC1)CO2 [Compound 28]
3.3 nM	CSc1cc(C)[nH]c(=O)c1CNC(=O)c1cc(Cl)c2c(c1C)O[C@@H]([C@H]1CC[C@H](N3CC4(COC4)C3)CC1)CO2 [Compound 29]

SMILES	IC50
CSc1cc(C)[nH]c(=O)c1CNC(=O)c1cc(Cl)c2c(c1C)O[C@@H]([C@H]1CC[C@H](N3CCC3)CC1)CO2 [Compound 33]	3.6 nM
